For the assay, the target named is human PDE10A (Homo sapiens (Human), UniProt Q9Y233). The experiment in a line: human PDE10A full length Scintillation Proximity Assay (SPA). The following applies: 50 nM cGMP and 50 nM [3H]-cGMP, 20 minutes at room temperature, read-out: PDE10A inhibition IC50. The format is biochemical. On the procedure:
The following test was carried out in order to determine the activity of the compounds of the present invention. PDE10 activity of the compounds of the present invention was determined using a Scintillation Proximity Assay (SPA)-based method similar to the one previously described (Fawcett, L. et al., Proc Natl Acad Sci USA (2000) 97(7):3702-3707).
The human PDE10A full length assay was performed in 96-well micro titer plates. The reaction mixture of 50 μl contained 20 mM HEPES pH=7.5/10 mM MgCl2/0.05 mg/ml BSA (Sigma cat. # A-7906), 50 nM cGMP (Sigma, cat. # G6129) and 50 nM [^3H]-cGMP (GE Healthcare, cat. # TRK392 S.A. 13.2Ci/mmol), 3.75 ng/well PDE10A enzyme (Enzo Life Science, Lausen, Switzerland cat # SE-534) with or without a specific test compound. A range of concentrations of the potential inhibitor was used to generate data for calculating the concentration of inhibitor resulting in 50% of the effect (e.g. IC50, the concentration of the competitor inhibiting PDE10A activity by 50%). Non-specific activity was tested without the enzyme. The reaction was initiated by the addition of the substrate solution (cGMP and [^3H]-cGMP) and allowed to progress for 20 minutes at room temperature. The reaction was terminated by adding 25 μA of YSi-SPA scintillation beads (GE Healthcare, cat. # RPNQ0150) in 18 mM zinc sulphate solution (stop reagent). After 1 h under shaking, the plate was centrifuged one minute at 170 g to allow beads to settle. Afterwards, radioactive counts were measured on a Perkin Elmer TopCount Scintillation plate reader.
On the technique in general: In a scintillation proximity assay essentially only radioactivity close to the scintillant gives light.

Chain of human PDE10A (Q9Y233 other isoform, or with tags, fused parts or gaps): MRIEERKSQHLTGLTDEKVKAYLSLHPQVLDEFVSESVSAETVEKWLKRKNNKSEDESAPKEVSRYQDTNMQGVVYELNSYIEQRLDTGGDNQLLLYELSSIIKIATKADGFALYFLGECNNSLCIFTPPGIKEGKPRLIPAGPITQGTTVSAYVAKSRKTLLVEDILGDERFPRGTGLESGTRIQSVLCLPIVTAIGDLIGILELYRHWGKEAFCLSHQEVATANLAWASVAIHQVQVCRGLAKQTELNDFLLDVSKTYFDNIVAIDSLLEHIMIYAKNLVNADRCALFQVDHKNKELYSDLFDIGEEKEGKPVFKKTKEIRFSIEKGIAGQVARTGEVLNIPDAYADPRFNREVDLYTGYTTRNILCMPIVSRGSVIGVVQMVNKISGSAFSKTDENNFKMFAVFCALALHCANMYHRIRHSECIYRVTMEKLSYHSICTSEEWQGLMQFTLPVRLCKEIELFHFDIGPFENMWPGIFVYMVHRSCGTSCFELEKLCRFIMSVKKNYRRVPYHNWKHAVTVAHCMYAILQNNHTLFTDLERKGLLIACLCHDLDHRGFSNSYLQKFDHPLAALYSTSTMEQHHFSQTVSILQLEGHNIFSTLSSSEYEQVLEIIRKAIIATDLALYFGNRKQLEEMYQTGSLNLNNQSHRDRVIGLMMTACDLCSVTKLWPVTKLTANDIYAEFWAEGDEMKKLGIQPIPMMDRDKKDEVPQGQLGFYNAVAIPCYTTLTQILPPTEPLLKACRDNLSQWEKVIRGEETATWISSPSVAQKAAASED

In general, IC50 refers to the concentration needed to halve the response being measured. `O=C(Nc1nnc(-c2ccc(F)cc2)s1)c1nc(C2CC2)ccc1Nc1cncnc1` [Example 45, 6-Cyclopropyl-3-(pyrimidin-5-ylamino)-pyridine-2-carboxylic acid [5-(4-fluoro-phenyl)-[1,3,4]thiadiazol-2-yl]-amide]: the IC50 worked out at 6380 nM. As for `Cn1nc(-c2ccc3ccccc3n2)cc1NC(=O)c1nc(C2CC2)ccc1Nc1cncnc1` [Example 40, 6-Cyclopropyl-3-(pyrimidin-5-ylamino)-pyridine-2-carboxylic acid (2-methyl-5-quinolin-2-yl-2H-pyrazol-3-yl)-amide], the IC50 was less than 1 nM. Then `COc1ccc(-c2nnc(NC(=O)c3nc(C4CC4)ccc3Nc3cncnc3)s2)cc1` [Example 44, 6-Cyclopropyl-3-(pyrimidin-5-ylamino)-pyridine-2-carboxylic acid [5-(4-methoxy-phenyl)-[1,3,4]thiadiazol-2-yl]-amide], with 1880 nM; and `O=C(Nc1ccn(-c2ccncc2)n1)c1nc(C2CC2)ccc1Nc1cncnc1` [Example 7, 6-Cyclopropyl-3-(pyrimidin-5-ylamino)-pyridine-2-carboxylic acid (1-pyridin-4-yl-1H-pyrazol-3-yl)-amide], with 10 nM. With `Cc1ccc(Nc2cncnc2)c(C(=O)Nc2ccn(-c3ccncc3)n2)n1` [Example 5, 6-Methyl-3-(pyrimidin-5-ylamino)-pyridine-2-carboxylic acid (1-pyridin-4-yl-1H-pyrazol-3-yl)-amide], the IC50 stood at 48 nM. Then `CCc1ccc(Nc2cncnc2)c(C(=O)Nc2cc(-c3ccccn3)nn2CCO)n1` [Example 34, 6-Ethyl-3-(pyrimidin-5-ylamino)-pyridine-2-carboxylic acid [2-(2-hydroxy-ethyl)-5-pyridin-2-yl-2H-pyrazol-3-yl]-amide], with 1 nM.

With `Cn1nc(-c2ccccn2)cc1NC(=O)c1nc(C2CC2)ncc1Nc1cncnc1` [Example 54, 2-Cyclopropyl-5-(pyrimidin-5-ylamino)-pyrimidine-4-carboxylic acid (2-methyl-5-pyridin-2-yl-2H-pyrazol-3-yl)-amide], the IC50 amounted to 87 nM.

As for `CCOC(=O)Cn1nc(-c2ccccn2)cc1NC(=O)c1nc(C2CC2)ccc1Nc1cncnc1` [Example 15, (5-{[6-Cyclopropyl-3-(pyrimidin-5-ylamino)-pyridine-2-carbonyl]-amino}-3-pyridin-2-yl-pyrazol-1-yl)-acetic acid ethyl ester], the IC50 was determined as 4 nM. Take `CN(C)CCn1nc(NC(=O)c2nc(C3CC3)ccc2Nc2cncnc2)cc1-c1ccccn1` [Example 42, 6-Cyclopropyl-3-(pyrimidin-5-ylamino)-pyridine-2-carboxylic acid [1-(2-dimethylamino-ethyl)-5-pyridin-2-yl-1H-pyrazol-3-yl]-amide]: the IC50 turned out to be 24 nM. To `O=C(Nc1cc(-c2ccccn2)nn1CC1CCCC1)c1nc(C2CC2)ccc1Nc1cncnc1` [Example 31, 6-Cyclopropyl-3-(pyrimidin-5-ylamino)-pyridine-2-carboxylic acid (2-cyclopentylmethyl-5-pyridin-2-yl-2H-pyrazol-3-yl)-amide] belongs 1 nM. For the molecule `O=C(Nc1cn(-c2ccccn2)cn1)c1nc(C2CC2)cnc1Nc1cncnc1` [Example 66, 6-Cyclopropyl-3-(pyrimidin-5-ylamino)-pyrazine-2-carboxylic acid (1-pyridin-2-yl-1H-imidazol-4-yl)-amide], the IC50 came to 187 nM. Then `O=C(Nc1cc(-c2ccc(Cl)cc2)no1)c1nc(C2CC2)ccc1Nc1cncnc1` [Example 56, 6-Cyclopropyl-3-(pyrimidin-5-ylamino)-pyridine-2-carboxylic acid [3-(4-chloro-phenyl)-isoxazol-5-yl]-amide], with 1450 nM. For the molecule `Cc1ccc(Nc2cncnc2)c(C(=O)Nc2ccn(-c3ccccc3)n2)n1` [Example 1, 6-Methyl-3-(pyrimidin-5-ylamino)-pyridine-2-carboxylic acid (1-phenyl-1H-pyrazol-3-yl)-amide], the IC50 worked out at 90 nM. To `O=C(Nc1cc(-c2ccccc2)on1)c1nc(C2CC2)ccc1Nc1cncnc1` [Example 47, 6-Cyclopropyl-3-(pyrimidin-5-ylamino)-pyridine-2-carboxylic acid (5-phenyl-isoxazol-3-yl)-amide] belongs 1450 nM; to `Cn1nc(NC(=O)c2nc(C3CC3)ccc2Nc2cncnc2)cc1-c1ccccn1` [Example 63, 6-Cyclopropyl-3-(pyrimidin-5-ylamino)-pyridine-2-carboxylic acid (1-methyl-5-pyridin-2-yl-1H-pyrazol-3-yl)-amide], 327 nM; to `Cn1nc(-c2ccccn2)cc1NC(=O)c1nc(C2CC2)ccc1Nc1cncnc1` [Example 8, 6-Cyclopropyl-3-(pyrimidin-5-ylamino)-pyridine-2-carboxylic acid (2-methyl-5-pyridin-2-yl-2H-pyrazol-3-yl)-amide], 5 nM. To `O=C(Nc1cc(-c2ccccc2)nn1CCO)c1nc(C2CC2)ccc1Nc1cncnc1` [Example 9, 6-Cyclopropyl-3-(pyrimidin-5-ylamino)-pyridine-2-carboxylic acid [2-(2-hydroxy-ethyl)-5-phenyl-2H-pyrazol-3-yl]-amide] belongs 122 nM. Then `O=C(Nc1nnc(-c2ccccc2)s1)c1nc(C2CC2)ccc1Nc1cncnc1` [Example 48, 6-Cyclopropyl-3-(pyrimidin-5-ylamino)-pyridine-2-carboxylic acid (5-phenyl-[1,3,4]thiadiazol-2-yl)-amide], with 435 nM. On to `Cc1cnc(Nc2cncnc2)c(C(=O)Nc2cc(-c3ccccn3)nn2C)n1` [Example 35, 6-Methyl-3-(pyrimidin-5-ylamino)-pyrazine-2-carboxylic acid (2-methyl-5-pyridin-2-yl-2H-pyrazol-3-yl)-amide], for which the IC50 is 21 nM. To `N#CCCn1nc(-c2ccccn2)cc1NC(=O)c1nc(C2CC2)ccc1Nc1cncnc1` [Example 33, 6-Cyclopropyl-3-(pyrimidin-5-ylamino)-pyridine-2-carboxylic acid [2-(2-cyano-ethyl)-5-pyridin-2-yl-2H-pyrazol-3-yl]-amide] belongs 170 nM. Take `Cn1nc(-c2ccc(Cl)cn2)cc1NC(=O)c1nc(C2CC2)ccc1Nc1cncnc1` [Example 39, 6-Cyclopropyl-3-(pyrimidin-5-ylamino)-pyridine-2-carboxylic acid [5-(5-chloro-pyridin-2-yl)-2-methyl-2H-pyrazol-3-yl]-amide]: the 50% inhibitory concentration (IC50) is 3 nM.

In the case of `COCCn1nc(-c2ccccn2)cc1NC(=O)c1nc(C2CC2)ccc1Nc1cncnc1` [Example 38, 6-Cyclopropyl-3-(pyrimidin-5-ylamino)-pyridine-2-carboxylic acid [2-(2-methoxy-ethyl)-5-pyridin-2-yl-2H-pyrazol-3-yl]-amide], the IC50 is less than 1 nM. Take `CC(C)c1ncc(Nc2cncnc2)c(C(=O)Nc2cc(-c3ccccn3)nn2C)n1` [Example 53, 2-Isopropyl-5-(pyrimidin-5-ylamino)-pyrimidine-4-carboxylic acid (2-methyl-5-pyridin-2-yl-2H-pyrazol-3-yl)-amide]: the IC50 was 20 nM. To `O=C(Nc1cc(-c2ccccn2)no1)c1nc(C2CC2)ccc1Nc1cncnc1` [Example 51, 6-Cyclopropyl-3-(pyrimidin-5-ylamino)-pyridine-2-carboxylic acid (3-pyridin-2-yl-isoxazol-5-yl)-amide] belongs 4 nM.

Values taken from patent US8470820B2, “Nitrogen-containing heteroaryl derivatives” (Hoffman-La Roche Inc., priority 2010, dated 2013).
